Assays:
Assay type in all cases: biochemical
[1] = tested on: lactate dehydrogenase from Ogataea parapolymorpha (OgLDH); assay: Thermal stability of OgLDH (residual activity ratio after heat treatment); conditions: OgLDH 2 U/mL; compound 300 mM; potassium phosphate buffer pH 7.5; 50°C for 15 minutes
Procedure: (§1) The thermal stability of LDH was evaluated by heating LDH at a given temperature for a given time and comparing the activities before and after heating. […] Further, LDH activity of an LDH solution allowed to stand still on ice without any heat treatment was measured. Based on the activity of this case without any heat treatment taken as 100, the activities of LDH solutions after heat treatment were calculated to determine the residual activity ratio (%). More specifically, the residual activity ratio (%) can be obtained by measuring LDH activity value (a) of a solution before heat treatment or before long-term storage, and LDH activity value (b) of a solution after heat treatment or after long-term storage, and then, calculating ((b)/(a)×100).
(§2) The activity of LDH was determined in accordance with the following procedure. […] Subsequently, a 30 mM PMS solution (50 μL) and an enzyme sample solution (50 μL) were added to the mixture to initiate a reaction. Absorbance at 520 nm was measured at the time of initiation of the reaction and over time and, the degree of reduction (ΔA520) in absorbance per minute as the enzymatic reaction progresses was obtained and LDH activity was calculated in accordance with the following Mathematical formula 2. Here, LDH activity is expressed by an enzyme (LDH) unit, and 1U is defined as the amount of the enzyme that can reduce 1 μmol DCIP per minute at 37° C. in the presence of 10 mM L-lactate.
Stability evaluation tests were conducted to check the improvement effect of malic acid on the stability of various LDHs. […] Each of these diluted enzyme solutions (a mixture of an enzyme and L-malic acid, LDH concentration: 2 U/mL, L-malic acid concentration: 300 mM) was heated in accordance with the thermal-stability evaluation method described in Section 4. More specifically, PkLDH was treated at 55° C., whereas, CaLDH and OgLDH were treated at 50° C. for 15 minutes and then the residual activity ratio (%) was calculated, based on the activity before heating taken as 100. As a comparative example, a sample without adding any L-malic acid in the enzyme diluent was subjected to the same experiment, and the ratio of residual activity in both cases were compared.
(§3) Using the purified OgLDH preparation obtained above, the ratios of remaining activities (%) in the presence and absence of a LDH stabilizer were compared in accordance with the LDH thermal stability evaluation method described in Section 4. In this manner, a stabilizer was searched.
The pH of the LDH solution was adjusted to be 7.5 after each of the compounds was added. Heat treatment was carried out at 50° C. for 15 minutes.

[2] = biological target: T1, lactate dehydrogenase from Saccharomyces cereviciae (ScLDH) (Saccharomyces cerevisiae, UniProt P00175); assay: Thermal stability of ScLDH (supernatant of crushed bacterial cells); conditions: ScLDH 2 U/mL; compound 300 mM; potassium phosphate buffer pH 7.5; 40°C for 15 minutes
T1 construct: made in house; host or cells: Escherichia coli BL21 (pKK223-3-ScLDH); unpurified supernatant of crushed cells
T1 sequence (P00175 86-591): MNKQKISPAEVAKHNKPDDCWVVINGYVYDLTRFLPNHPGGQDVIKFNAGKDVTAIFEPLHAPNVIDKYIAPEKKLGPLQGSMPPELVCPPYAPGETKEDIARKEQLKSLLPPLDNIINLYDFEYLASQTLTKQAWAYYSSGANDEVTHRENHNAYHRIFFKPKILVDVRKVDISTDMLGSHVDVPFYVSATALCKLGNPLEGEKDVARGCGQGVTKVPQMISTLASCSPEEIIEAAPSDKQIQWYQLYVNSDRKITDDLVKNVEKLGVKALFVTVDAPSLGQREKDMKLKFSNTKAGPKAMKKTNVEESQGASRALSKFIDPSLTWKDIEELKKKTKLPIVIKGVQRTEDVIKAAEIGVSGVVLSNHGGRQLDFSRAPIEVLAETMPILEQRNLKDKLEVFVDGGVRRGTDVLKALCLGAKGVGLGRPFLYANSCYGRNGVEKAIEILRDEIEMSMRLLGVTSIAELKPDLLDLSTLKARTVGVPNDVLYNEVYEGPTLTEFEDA
Procedure: as §1, §2
as §3, with “supernatant of a solution comprising crushed ScLDH bacterial cells” for “purified OgLDH preparation”
The pH of the LDH solution was adjusted to be 7.5 after each of the compounds was added. Heat treatment was carried out at 40° C. for 15 minutes.

[3] = tested on: lactate dehydrogenase from Pichia kudriavzevii (PkLDH); assay: Thermal stability of PkLDH in 150 mM HEPES buffer; conditions: PkLDH 2 U/mL; 150 mM HEPES buffer pH 7.5; added compound 350 mM; 55°C for 15 minutes
Procedure: as §1
as §2, with “Here, LDH activity is expressed by an enzyme (LDH) unit, and 1U is defined as the amount of the enzyme that can reduce 1 μmol DCIP per minute at 37° C. in the presence of 10 mM L-lactate.” left out

[4] = tested on: lactate dehydrogenase from Pichia kudriavzevii (PkLDH); assay: Chronoamperometry with printed electrode to which PkLDH plus stabilizer was applied and dried (2 mM mPMS/PBS); conditions: added compound 50 mM, LDH 1 U dried at 40°C for 60 minutes, +200 mV
Procedure: An enzyme electrode was prepared using the purified PkLDH preparation obtained above and chronoamperometry was carried out. Each of the compounds was added to an enzyme solution in advance and tested whether or not a stabilizing effect of the enzyme during a drying step was exerted. LDH (1 U) solutions comprising compounds in a concentration (0.2% (w/v), 2% (w/v) and 50 mM, respectively) as described in Table 8 were each applied to a screen-printed carbon electrode C110 (manufactured by Metrohm-Dropsens) in an amount of 4 μL and dried at 40° C. for 60 minutes. The same procedure was repeated using an LDH solution without adding any one of the compounds. Each of the electrodes prepared was connected to ALS electrochemical analyzer 814D (manufactured by BAS) using a dedicated connector (DRP-CAC, manufactured by Drop Sense). Subsequently, 100 μL of a 2 mM mPMS/PBS solution was added dropwise to dissolve the dried LDH. The applied voltage was +200 mV (vs Ag/Ag+). An L-sodium lactate solution was added and a response current value 5 seconds after initiation of measurement was recorded. […] Then, an L-sodium lactate solution was added such that the final concentration thereof would be 2 to 10 mM, and a response current value 5 seconds after initiation of measurement was recorded.

With `O=C([O-])CC(=O)[O-].[Na+].[Na+]` [disodium malonate] the “LDH stability improving effect” value [1] was 96%, the “stability improving effect on ScLDH” value [2] was 26% and the “Residual activity ratio (%)” value [3] was 101%. The “Current value 5 seconds later (μA), 0 mM lactate” value ([4]; 0 mM lactate) was 0.21 μA and the “Current value 5 seconds later (μA), 2 mM lactate” value ([4]; 2 mM lactate) was 61.8 μA.
